For four compounds, mutagenic call results are on record in PubChem BioAssay AID1259407 (Chemical Carcinogenesis Research Information System (CCRIS), 2018).

Structures are written as SMILES. Calls of active or inactive are those of the source. No rule for the calls is given here.

This data set has as its system CCRIS mutagenicity, Ames/micronucleus/aberration tests. Description: CCRIS mutagenicity studies.
Where [1] appears, read: Test System: AMES SALMONELLA TYPHIMURIUM, Strain/Indicator: TA98, Metabolic Activation: NONE, Method: STANDARD PLATE.
[2] abbreviates: Test System: AMES SALMONELLA TYPHIMURIUM, Strain/Indicator: TA98, Metabolic Activation: RAT, LIVER, S-9, AROCLOR 1254, Method: STANDARD PLATE.
The mark [3] stands for this setting: Test System: AMES SALMONELLA TYPHIMURIUM, Strain/Indicator: TA100, Metabolic Activation: NONE, Method: STANDARD PLATE.
Setting [4] is: Test System: AMES SALMONELLA TYPHIMURIUM, Strain/Indicator: TA100, Metabolic Activation: RAT, LIVER, S-9, AROCLOR 1254, Method: STANDARD PLATE.

As for `CC/C(=C(\c1ccccc1)c1ccc(OCCN(C)C)cc1)c1ccccc1`, the mutagenic call by setting is: (End Point: IN VITRO CHROMOSOMAL ABERRATIONS, Test System: SYRIAN HAMSTER EMBRYO (SHE) CELLS, Metabolic Activation: NONE) “inactive; negative”; (End Point: IN VITRO MICRONUCLEUS, Test System: AHH-1 CELLS, Metabolic Activation: NONE) “inactive; negative”; (End Point: IN VITRO MICRONUCLEUS, Test System: MCL-5 CELLS, Metabolic Activation: NONE) “active; positive”; (Test System: AMES SALMONELLA TYPHIMURIUM, Strain/Indicator: TA98, Metabolic Activation: HAMSTER, LIVER, S-9, AROCLOR 1254, Method: STANDARD PLATE) “inactive; negative”; under setting [1], “inactive; negative”; under setting [2], “inactive; negative”. For the same compound, the mutagenic call (Test System: AMES SALMONELLA TYPHIMURIUM, Strain/Indicator: TA100, Metabolic Activation: HAMSTER, LIVER, S-9, AROCLOR 1254, Method: STANDARD PLATE) is “inactive; negative”; the mutagenic call under setting [3] is “inactive; negative”; the mutagenic call under setting [4] is “inactive; negative”; the mutagenic call (Test System: AMES SALMONELLA TYPHIMURIUM, Strain/Indicator: TA1535, Metabolic Activation: HAMSTER, LIVER, S-9, AROCLOR 1254, Method: STANDARD PLATE) is “inactive; negative”; the mutagenic call (Test System: AMES SALMONELLA TYPHIMURIUM, Strain/Indicator: TA1535, Metabolic Activation: NONE, Method: STANDARD PLATE) was “inactive; negative”; the mutagenic call (Test System: AMES SALMONELLA TYPHIMURIUM, Strain/Indicator: TA1535, Metabolic Activation: RAT, LIVER, S-9, AROCLOR 1254, Method: STANDARD PLATE) was “inactive; negative”. For the same compound, the mutagenic call is, setting by setting: (Test System: AMES SALMONELLA TYPHIMURIUM, Strain/Indicator: TA1537, Metabolic Activation: HAMSTER, LIVER, S-9, AROCLOR 1254, Method: STANDARD PLATE) “inactive; negative”; (Test System: AMES SALMONELLA TYPHIMURIUM, Strain/Indicator: TA1537, Metabolic Activation: NONE, Method: STANDARD PLATE) “inactive; negative”; (Test System: AMES SALMONELLA TYPHIMURIUM, Strain/Indicator: TA1537, Metabolic Activation: RAT, LIVER, S-9, AROCLOR 1254, Method: STANDARD PLATE) “inactive; negative”; (Test System: AMES SALMONELLA TYPHIMURIUM, Strain/Indicator: TA1538, Metabolic Activation: HAMSTER, LIVER, S-9, AROCLOR 1254, Method: STANDARD PLATE) “inactive; negative”; (Test System: AMES SALMONELLA TYPHIMURIUM, Strain/Indicator: TA1538, Metabolic Activation: NONE, Method: STANDARD PLATE) “inactive; negative”; (Test System: AMES SALMONELLA TYPHIMURIUM, Strain/Indicator: TA1538, Metabolic Activation: RAT, LIVER, S-9, AROCLOR 1254, Method: STANDARD PLATE) “inactive; negative”. For the same compound, the mutagenic call (Test System: CHINESE HAMSTER V-79, Strain/Indicator: V-79 (HPRT)/6-THIOGUANINE, Metabolic Activation: NONE) is “inactive; negative”.

With `CC(=O)c1cc(C(C)(C)C)cc2c1CCC2(C)C`, the mutagenic call is “inactive; negative” (Test System: AMES SALMONELLA TYPHIMURIUM, Strain/Indicator: TA97, Metabolic Activation: NONE, Method: STANDARD PLATE); “inactive; negative” (Test System: AMES SALMONELLA TYPHIMURIUM, Strain/Indicator: TA97, Metabolic Activation: RAT LIVER S-9, AROCLOR 1254, Method: STANDARD PLATE); “inactive; negative” under setting [1]; “inactive; negative” (Test System: AMES SALMONELLA TYPHIMURIUM, Strain/Indicator: TA98, Metabolic Activation: RAT LIVER S-9, AROCLOR 1254, Method: STANDARD PLATE); “inactive; negative” under setting [3]; “inactive; negative” (Test System: AMES SALMONELLA TYPHIMURIUM, Strain/Indicator: TA100, Metabolic Activation: RAT LIVER S-9, AROCLOR 1254, Method: STANDARD PLATE). The mutagenic call runs as follows: (Test System: AMES SALMONELLA TYPHIMURIUM, Strain/Indicator: TA102, Metabolic Activation: NONE, Method: STANDARD PLATE) “inactive; negative”; (Test System: AMES SALMONELLA TYPHIMURIUM, Strain/Indicator: TA102, Metabolic Activation: RAT LIVER S-9, AROCLOR 1254, Method: STANDARD PLATE) “inactive; negative”.

On to `CC(=O)Nc1ccccc1C`, for which the mutagenic call under setting [1] is “inactive; negative”, the mutagenic call under setting [2] was “inactive; negative”, the mutagenic call under setting [3] was “inactive; negative” and the mutagenic call under setting [4] is “inactive; negative”.

Regarding `O=[N+]([O-])c1cccc2c1-c1ccc3ccc4cccc5cc-2c1c3c45`, the mutagenic call reads like this: (Test System: AMES SALMONELLA TYPHIMURIUM, Strain/Indicator: TA98, Metabolic Activation: RAT, LIVER, S-9, AROCLOR 1254, Method: PREINCUBATION) “active; positive”; (Test System: AMES SALMONELLA TYPHIMURIUM, Strain/Indicator: TA100, Metabolic Activation: RAT, LIVER, S-9, AROCLOR 1254, Method: PREINCUBATION) “active; positive”.
